Source: PubChem BioAssay (NCI)
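A five-concentration, 48-hour dose response in 96-well plates underlies each endpoint, interpolated linearly between surrounding concentrations. TGI is the concentration that stops growth completely.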

Assays:
Experiment in all cases: growth of human tumour cells (NCI), 48 h
786-0 renal = tested on: 786-0 renal
BT-549 breast = tested on: BT-549 breast
CAKI-1 renal = tested on: CAKI-1 renal
CCRF-CEM leukemia = tested on: CCRF-CEM leukemia
EKVX NSCLC = tested on: EKVX NSCLC
HCT-15 colon = tested on: HCT-15 colon
HL-60(TB) leukemia = tested on: HL-60(TB) leukemia
HT29 colon = tested on: HT29 colon
IGROV1 ovarian = tested on: IGROV1 ovarian
LOX IMVI melanoma = tested on: LOX IMVI melanoma
M14 melanoma = tested on: M14 melanoma
MALME-3M melanoma = tested on: MALME-3M melanoma
MDA-MB-435 = tested on: MDA-MB-435
NCI-H23 lung = tested on: NCI-H23 lung
NCI-H460 lung = tested on: NCI-H460 lung
OVCAR-4 ovarian = tested on: OVCAR-4 ovarian
OVCAR-8 ovarian = tested on: OVCAR-8 ovarian
SK-OV-3 ovarian = tested on: SK-OV-3 ovarian
T-47D breast = tested on: T-47D breast
UO-31 renal = tested on: UO-31 renal

Compound	TGI (786-0 renal) [µM]	TGI (BT-549 breast) [µM]	TGI (CAKI-1 renal) [µM]	TGI (CCRF-CEM leukemia) [µM]	TGI (EKVX NSCLC) [µM]	TGI (HCT-15 colon) [µM]	TGI (HL-60(TB) leukemia) [µM]	TGI (HT29 colon) [µM]	TGI (IGROV1 ovarian) [µM]	TGI (LOX IMVI melanoma) [µM]	TGI (M14 melanoma) [µM]	TGI (MALME-3M melanoma) [µM]	TGI (MDA-MB-435) [µM]	TGI (NCI-H23 lung) [µM]	TGI (NCI-H460 lung) [µM]	TGI (OVCAR-4 ovarian) [µM]	TGI (OVCAR-8 ovarian) [µM]	TGI (SK-OV-3 ovarian) [µM]	TGI (T-47D breast) [µM]	TGI (UO-31 renal) [µM]
CN(/N=C/c1ccccn1)C1=NCCCN1	> 100	> 100	> 100	> 100	> 100	> 100	> 100	> 100	> 100	> 100	> 100	> 100	> 100	> 100	> 100	> 100	> 100	> 100	> 100	> 100
COC(=O)CN1C(=O)C2(C(=O)OC)OC1(c1ccc([N+](=O)[O-])cc1)C1C(=O)N(c3ccccc3)C(=O)C12 (stereo unspecified)	> 100	> 100	> 100	> 100	> 100	> 100	> 100	> 100	> 100	> 100	> 100	> 100	> 100	> 100	–	> 100	> 100	> 100	> 100	> 100
COC(=O)c1c(O)ccc2c1c1c(n2Cc2ccccc2OC)C(=O)c2ccccc2C1=O	24	32.1	37.9	17.7	45	20	18.3	21.3	28.3	26.3	22.6	40.5	27.7	34.8	16.6	26.9	27.4	53.7	9.58	36.9
COC(=O)c1cc(O)c(O)c(O)c1-c1c(O)c(O)c(O)c(SC[C@H](NC(=O)OCc2ccccc2)C(=O)OCc2ccccc2)c1C(=O)OC	49.6	> 100	35.2	> 100	50.8	> 100	39.8	86.5	84.2	49.4	36.8	> 100	44	50.3	> 100	89.9	52.7	> 100	> 100	–
COc1c(C(C)(C)C)cc(CC2C(=O)C=CC2=O)cc1C(C)(C)C	> 22.3	41.1	30.5	14.9	37.7	37.6	11.3	36.1	29.2	40.2	39.6	49.6	37.4	48.9	41.2	89.5	66.9	56	12.7	27.5
O=CC1C(Cl)=Nc2nc3ccccc3n2C1c1ccccc1 (stereo unspecified)	29.5	29	46.6	63.1	64.6	30.9	58.3	37.7	43.8	29	64.6	52.5	> 100	56.6	> 100	44	52.9	–	41.2	48.4
C=CCNC1=C2C[C@@H](C)C[C@H](OC)[C@H](O)[C@@H](C)/C=C(\C)[C@H](OC(N)=O)[C@@H](OC)/C=C\C=C(/C)C(=O)NC(=CC1=O)C2=O	58.3	31.1	38	10.6	31.4	24.5	1.06	12.1	15.1	2	17	3.39	17	8.3	15.9	26.4	46	58.8	29.5	21.4
c1ccc2c(c1)c1c3c(c4c(n32)=NCCN4)CCC1	> 100	> 100	> 100	> 100	> 100	> 100	> 100	56.7	> 100	43.3	> 100	> 100	> 100	> 100	> 100	> 100	> 100	> 100	92.1	> 100
O=[N+]([O-])c1cc(N=Nc2c(O)ccc3cc(S(=O)(=O)O)ccc23)c(O)c([N+](=O)[O-])c1	> 100	> 100	> 100	> 100	> 100	> 100	> 100	> 100	> 100	> 100	> 100	> 100	> 100	> 100	–	> 100	> 100	> 100	> 100	> 100
